Results from patent US7550469B2, “Heterocyclic amide derivatives and their use as dopamine D3 receptor ligands” (Aventis Pharmaceuticals Inc., priority 2001, dated 2009).
Like-named read-outs stand apart in the source and are kept apart here.

Biological target: T1, cloned human dopamine D3 receptors (Homo sapiens, UniProt P35462)
T1 construct: expressed in transfected cells; membrane homogenate
Assay: [N-Methyl-3H]Spiroperidol binding to cloned human dopamine D3 receptors (Protocol 1)
In short: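 Membranes from CHO cells stably expressing cloned human D3 receptor were used for [N-methyl-3H]spiroperidol (60-90 Ci/mmol) binding. Assay buffer was 0.05 M Tris HCl pH 7.7 with 120 mM NaCl, 5 mM KCl, 2 mM CaCl2 and 1 mM MgCl2, optionally 0.1% ascorbic acid; total ligand concentration calculated from added CPM.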

[1] = the 14th table, read-out: D3 Ki
[2] = the 21st table, read-out: D3 Ki

T1 sequence (P35462 whole entry): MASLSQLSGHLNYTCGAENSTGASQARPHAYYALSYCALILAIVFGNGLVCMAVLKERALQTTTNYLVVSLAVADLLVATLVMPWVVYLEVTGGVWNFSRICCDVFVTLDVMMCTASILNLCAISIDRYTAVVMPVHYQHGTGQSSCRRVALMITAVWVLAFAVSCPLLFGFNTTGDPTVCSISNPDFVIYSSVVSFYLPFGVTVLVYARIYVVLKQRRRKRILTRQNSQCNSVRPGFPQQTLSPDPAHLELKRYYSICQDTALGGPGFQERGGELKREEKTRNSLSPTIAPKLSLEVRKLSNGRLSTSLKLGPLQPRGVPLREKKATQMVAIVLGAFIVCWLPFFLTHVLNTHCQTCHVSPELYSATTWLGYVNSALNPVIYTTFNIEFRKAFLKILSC

| Ki [2] | Compound | other results |
| --- | --- | --- |
| 217 nM | C[C@@H]1CN(c2csc3cc(C(F)(F)F)ccc23)C[C@H](C)N1CCCCNC(=O)c1ccc(F)cc1 [compound 826929] | – |
| 74.7 nM | COc1ccc(C(=O)NCCCCN2[C@H](C)CN(c3csc4cc(C(F)(F)F)ccc34)C[C@@H]2C)cc1OC [compound 826930] | – |
| 276 nM | C[C@@H]1CN(c2csc3cc(C(F)(F)F)ccc23)C[C@H](C)N1CCCCNC(=O)c1ccc(-c2ccccc2)cc1 [compound 826933] | – |
| 96.1 nM | C[C@@H]1CN(c2csc3cc(C(F)(F)F)ccc23)C[C@H](C)N1CCCCNC(=O)c1ccc(C(F)(F)F)cc1 [compound 826936] | – |
| 175 nM | C[C@@H]1CN(c2csc3cc(C(F)(F)F)ccc23)C[C@H](C)N1CCCCNC(=O)c1cccnc1Cl [compound 826938] | – |
| 49.2 nM | COc1ccc(C(=O)NCCCCN2[C@H](C)CN(c3csc4cc(F)ccc34)C[C@@H]2C)cc1OC [compound 826940] | – |
| 36.3 nM | Cc1ccccc1C(=O)NCCCCN1[C@H](C)CN(c2csc3cc(F)ccc23)C[C@@H]1C [compound 826941] | – |
| 12.7 nM | C[C@@H]1CN(c2csc3cc(F)ccc23)C[C@H](C)N1CCCCNC(=O)c1ccc(-c2ccccc2)cc1 [compound 826943] | – |
| 154 nM | C[C@@H]1CN(c2csc3cc(F)ccc23)C[C@H](C)N1CCCCNC(=O)c1cccnc1Cl [compound 826948] | – |
| 164 nM | C[C@@H]1CN(c2csc3cc(C(F)(F)F)ccc23)C[C@H](C)N1CCCCNC(=O)c1c[nH]c2ccccc12 [compound 826952] | – |
| 222 nM | C[C@@H]1CN(c2csc3cc(C(F)(F)F)ccc23)C[C@H](C)N1CCCCNC(=O)c1cccc2[nH]ccc12 [compound 826953] | – |
| 190 nM | C[C@@H]1CN(c2csc3cc(C(F)(F)F)ccc23)C[C@H](C)N1CCCCNC(=O)c1n[nH]c2ccccc12 [compound 826956] | – |
| 51.2 nM | C[C@@H]1CN(c2csc3cc(F)ccc23)C[C@H](C)N1CCCCNC(=O)c1cc2ccccc2n1C [compound 826961] | – |
| 72.9 nM | C[C@@H]1CN(c2csc3cc(F)ccc23)C[C@H](C)N1CCCCNC(=O)c1cccc2[nH]ccc12 [compound 826963] | – |
| 77.1 nM | C[C@@H]1CN(c2csc3cc(F)ccc23)C[C@H](C)N1CCCCNC(=O)c1n[nH]c2ccccc12 [compound 826966] | – |
| 51.2 nM | C[C@@H]1CN(c2csc3cc(F)ccc23)C[C@H](C)N1CCCCNC(=O)c1cc2ccccc2o1 [compound 827036] | – |
| 106 nM | C[C@@H]1CN(c2csc3cc(C(F)(F)F)ccc23)C[C@H](C)N1CCCCNC(=O)c1cccs1 [compound 827037] | – |
| 378 nM | COc1cc(OC)cc(C(=O)NCCCCN2[C@H](C)CN(c3csc4cc(C(F)(F)F)ccc34)C[C@@H]2C)c1 [compound 827039] | – |
| 97.8 nM | C[C@@H]1CN(c2csc3cc(C(F)(F)F)ccc23)C[C@H](C)N1CCCCNC(=O)c1cc2ccccc2s1 [compound 827045] | – |
| 56.9 nM | C[C@@H]1CN(c2csc3cc(C(F)(F)F)ccc23)C[C@H](C)N1CCCCNC(=O)c1cccs1 [compound 827046] | – |
| 50.9 nM | C[C@@H]1CN(c2csc3cc(F)ccc23)C[C@H](C)N1CCCCNC(=O)c1ccc(OC(F)(F)F)cc1 [compound 827049] | – |
| 186 nM | C[C@@H]1CN(c2csc3cc(F)ccc23)C[C@H](C)N1CCCCNC(=O)c1cccc2ccccc12 [compound 827050] | – |
| 53.9 nM | C[C@@H]1CN(c2csc3cc(F)ccc23)C[C@H](C)N1CCCCNC(=O)c1cccc(F)c1 [compound 827053] | – |

Continued, compound first:

| Compound | Ki [2] | other results |
| --- | --- | --- |
| CC1=C(C(=O)NCCCCCN2CCN(c3csc4cc(F)ccc34)CC2)Cc2ccccc21 [compound 826792] | – | Ki [1]: 3.91 nM |
| O=C(NCCCCCN1CCN(c2csc3cc(F)ccc23)CC1)c1cc2ccccc2o1 [compound 826793] | – | Ki [1]: 3.7 nM |
| O=C(NCCCCCN1CCN(c2csc3cc(C(F)(F)F)ccc23)CC1)c1cc2ccccc2[nH]1 [compound 826794] | – | Ki (read-out: D3K1): 11.1 nM; Ki [1]: 11.1 nM |
| COc1ccc2[nH]c(C(=O)NCCCCCN3CCN(c4csc5cc(C(F)(F)F)ccc45)CC3)cc2c1 [compound 826795] | – | Ki (read-out: D3K1): 13.9 nM; Ki [1]: 13.9 nM |
| Cn1c(C(=O)NCCCCCN2CCN(c3csc4cc(C(F)(F)F)ccc34)CC2)cc2ccccc21 [compound 826796] | – | Ki (read-out: D3K1): 14.9 nM; Ki [1]: 14.9 nM |
| O=C(NCCCCCN1CCN(c2csc3cc(C(F)(F)F)ccc23)CC1)c1c[nH]c2ccccc12 [compound 826797] | – | Ki (read-out: D3K1): 36.4 nM; Ki [1]: 36.4 nM |
| O=C(NCCCCCN1CCN(c2csc3cc(C(F)(F)F)ccc23)CC1)c1cccc2[nH]ccc12 [compound 826798] | – | Ki (read-out: D3K1): 6.44 nM; Ki [1]: 6.44 nM |
| O=C(NCCCCCN1CCN(c2csc3cc(C(F)(F)F)ccc23)CC1)c1ccc2[nH]ccc2c1 [compound 826799] | – | Ki (read-out: D3K1): 6.48 nM; Ki [1]: 6.48 nM |
| O=C(NCCCCCN1CCN(c2csc3cc(C(F)(F)F)ccc23)CC1)c1ccc2cc[nH]c2c1 [compound 826800] | – | Ki (read-out: D3K1): 27.2 nM; Ki [1]: 27.2 nM |
| O=C(NCCCCCN1CCN(c2csc3cc(C(F)(F)F)ccc23)CC1)c1n[nH]c2ccccc12 [compound 826801] | – | Ki (read-out: D3K1): 49.8 nM; Ki [1]: 49.8 nM |
| CC1=C(C(=O)NCCCCCN2CCN(c3csc4cc(C(F)(F)F)ccc34)CC2)Cc2ccccc21 [compound 826802] | – | Ki (Table 2, read-out: D3K1): 16.9 nM; Ki [1]: 16.9 nM |
| O=C(NCCCCCN1CCN(c2csc3cc(C(F)(F)F)ccc23)CC1)c1cc2ccccc2o1 [compound 826803] | – | Ki (Table 2, read-out: D3K1): 16.9 nM; Ki [1]: 16.9 nM |
| Cc1ccccc1C(=O)NCCCCN1[C@H](C)CN(c2csc3cc(C(F)(F)F)ccc23)C[C@@H]1C [compound 826931] | 219 nM | – |
| COc1cccc(C(=O)NCCCCN2[C@H](C)CN(c3csc4cc(C(F)(F)F)ccc34)C[C@@H]2C)c1 [compound 826932] | 384 nM | – |
| C[C@@H]1CN(c2csc3cc(C(F)(F)F)ccc23)C[C@H](C)N1CCCCNC(=O)c1ccc(C(C)(C)C)cc1 [compound 826934] | 227 nM | – |
| C[C@@H]1CN(c2csc3cc(C(F)(F)F)ccc23)C[C@H](C)N1CCCCNC(=O)c1cnc2ccccc2n1 [compound 826935] | 268 nM | – |
| C[C@@H]1CN(c2csc3cc(C(F)(F)F)ccc23)C[C@H](C)N1CCCCNC(=O)c1ccncc1 [compound 826937] | 253 nM | – |
| C[C@@H]1CN(c2csc3cc(F)ccc23)C[C@H](C)N1CCCCNC(=O)c1ccc(F)cc1 [compound 826939] | 19 nM | – |
| COc1cccc(C(=O)NCCCCN2[C@H](C)CN(c3csc4cc(F)ccc34)C[C@@H]2C)c1 [compound 826942] | 57.4 nM | – |
| C[C@@H]1CN(c2csc3cc(F)ccc23)C[C@H](C)N1CCCCNC(=O)c1ccc(C(C)(C)C)cc1 [compound 826944] | 128 nM | – |
| C[C@@H]1CN(c2csc3cc(F)ccc23)C[C@H](C)N1CCCCNC(=O)c1cnc2ccccc2n1 [compound 826945] | 133 nM | – |

| Compound | Ki [2] | other results |
| --- | --- | --- |
| C[C@@H]1CN(c2csc3cc(F)ccc23)C[C@H](C)N1CCCCNC(=O)c1ccc(C(F)(F)F)cc1 [compound 826946] | 35.9 nM | – |
| C[C@@H]1CN(c2csc3cc(F)ccc23)C[C@H](C)N1CCCCNC(=O)c1ccncc1 [compound 826947] | 47.6 nM | – |
| C[C@@H]1CN(c2csc3cc(C(F)(F)F)ccc23)C[C@H](C)N1CCCCNC(=O)c1cc2ccccc2n1C [compound 826950] | 81.2 nM | – |
| COc1ccc2[nH]c(C(=O)NCCCCN3[C@H](C)CN(c4csc5cc(C(F)(F)F)ccc45)C[C@@H]3C)cc2c1 [compound 826951] | 41.3 nM | – |
| C[C@@H]1CN(c2csc3cc(C(F)(F)F)ccc23)C[C@H](C)N1CCCCNC(=O)c1ccc2[nH]ccc2c1 [compound 826954] | 39.4 nM | – |
| C[C@@H]1CN(c2csc3cc(C(F)(F)F)ccc23)C[C@H](C)N1CCCCNC(=O)c1ccc2cc[nH]c2c1 [compound 826955] | 70.5 nM | – |
| C[C@@H]1CN(c2csc3cc(C(F)(F)F)ccc23)C[C@H](C)N1CCCCNC(=O)c1cc2ccccc2o1 [compound 826958] | 148 nM | – |
| COc1ccc2[nH]c(C(=O)NCCCCN3[C@H](C)CN(c4csc5cc(F)ccc45)C[C@@H]3C)cc2c1 [compound 826960] | 15.3 nM | – |
| C[C@@H]1CN(c2csc3cc(F)ccc23)C[C@H](C)N1CCCCNC(=O)c1c[nH]c2ccccc12 [compound 826962] | 79.8 nM | – |
| C[C@@H]1CN(c2csc3cc(F)ccc23)C[C@H](C)N1CCCCNC(=O)c1ccc2[nH]ccc2c1 [compound 826964] | 32.2 nM | – |
| C[C@@H]1CN(c2csc3cc(F)ccc23)C[C@H](C)N1CCCCNC(=O)c1ccc2cc[nH]c2c1 [compound 826965] | 25.6 nM | – |
| C[C@@H]1CN(c2csc3cc(C(F)(F)F)ccc23)C[C@H](C)N1CCCCNC(=O)c1cccc(Cl)c1 [compound 827038] | 155 nM | – |
| C[C@@H]1CN(c2csc3cc(C(F)(F)F)ccc23)C[C@H](C)N1CCCCNC(=O)c1ccc(OC(F)(F)F)cc1 [compound 827040] | 165 nM | – |
| C[C@@H]1CN(c2csc3cc(C(F)(F)F)ccc23)C[C@H](C)N1CCCCNC(=O)c1cccc2ccccc12 [compound 827041] | 357 nM | – |
| C[C@@H]1CN(c2csc3cc(C(F)(F)F)ccc23)C[C@H](C)N1CCCCNC(=O)c1ccc2ccccc2c1 [compound 827042] | 112 nM | – |
| C[C@@H]1CN(c2csc3cc(C(F)(F)F)ccc23)C[C@H](C)N1CCCCNC(=O)c1cccc(C(F)(F)F)c1 [compound 827043] | 322 nM | – |
| C[C@@H]1CN(c2csc3cc(C(F)(F)F)ccc23)C[C@H](C)N1CCCCNC(=O)c1cccc(F)c1 [compound 827044] | 186 nM | – |
| C[C@@H]1CN(c2csc3cc(F)ccc23)C[C@H](C)N1CCCCNC(=O)c1cccc(Cl)c1 [compound 827047] | 65.1 nM | – |
| COc1cc(OC)cc(C(=O)NCCCCN2[C@H](C)CN(c3csc4cc(F)ccc34)C[C@@H]2C)c1 [compound 827048] | 317 nM | – |
| C[C@@H]1CN(c2csc3cc(F)ccc23)C[C@H](C)N1CCCCNC(=O)c1ccc2ccccc2c1 [compound 827051] | 29.5 nM | – |
| C[C@@H]1CN(c2csc3cc(F)ccc23)C[C@H](C)N1CCCCNC(=O)c1cccc(C(F)(F)F)c1 [compound 827052] | 153 nM | – |
